Experimental data reported in EPA's ToxRefDB 2.

What was measured:
rat [1] = conditions: Combined chronic toxicity/carcinogenicity, sprague dawley, Oral, Feed, dose end: 24 month, group: systemic
rat [2] = conditions: Subchronic oral toxicity in rodents, sprague dawley, Feed, dose end: 90 day, group: systemic
rat [3] = conditions: Prenatal developmental toxicity study, sprague dawley, Oral, Gavage/Intubation, dose end: 17 GD
rat [4] = conditions: Multigenerational reproductive toxicity study, sprague dawley, Oral, Feed, dose end: 2 generation
dog [5] = conditions: Chronic toxicity, beagle, Oral, Capsule, dose end: 52 week, group: systemic
dog [6] = conditions: Subchronic oral toxicity in nonrodent, beagle, Feed, dose end: 90 day, group: systemic
mouse [7] = conditions: Carcinogenicity; cd1; Oral; Feed; dose end: 78 week; group: systemic; systemic / pathology microscopic / kidney / nephropathy
rat [8] = conditions: Subchronic oral toxicity in rodents, wistar, Feed, dose end: 13 week, group: systemic
mouse [9] = conditions: Prenatal developmental toxicity study, cd1, Injection, Intravenous, dose end: 12 GD
mouse [10] = conditions: Carcinogenicity, b6c3f1, Dermal, Topical, dose end: 2 year, group: systemic
rat [11] = conditions: Subchronic oral toxicity in rodents, fischer, Dermal, Topical, dose end: 13 week, group: systemic
rat [12] = conditions: Combined chronic toxicity/carcinogenicity; fischer; Dermal; Topical; dose end: 2 year; group: systemic; systemic / pathology microscopic / pituitary gland / adenoma
rat [13] = conditions: Prenatal developmental toxicity study, sprague dawley, Injection, Intramuscular, dose end: 13 GD, group: developmental
mouse [14] = conditions: Carcinogenicity; b6c3f1; Oral; Feed; dose end: 103 week; group: systemic; systemic / pathology microscopic / kidney / vacuolization
rat [15] = conditions: Subchronic oral toxicity in rodents, fischer, Feed, dose end: 13 week, group: systemic, systemic / in life observation / body weight / body weight gain
rat [16] = conditions: Carcinogenicity, fischer, Oral, Feed, dose end: 103 week, group: systemic
mouse [17] = conditions: Subchronic oral toxicity in rodents, b6c3f1, Feed, dose end: 13 week, group: systemic, systemic / in life observation / body weight / body weight gain
rat [18] = conditions: Prenatal developmental toxicity study, other, Oral, Gavage/Intubation, dose end: 15 GD
rat [19] = conditions: Prenatal developmental toxicity study, sprague dawley, Oral, Gavage/Intubation, dose end: 15 GD
rat [20] = conditions: Subchronic dermal toxicity, sprague dawley, Topical, dose end: 91 day, group: systemic, systemic / in life observation / clinical signs / erythema + systemic / in life observation / clinical signs / scabbing + systemic / in life…
[21] = systemic / clinical chemistry / gamma glutamyl transferase (ggt) / gamma glutamyl transferase (ggt)
[22] = systemic / clinical chemistry / aspartate aminotransferase (ast/sgot) / aspartate aminotransferase (ast/sgot) + systemic / clinical …
[23] = systemic / clinical chemistry / cholesterol / cholesterol + systemic / clinical chemistry / lipids / phospholipids + systemic / hematology…
[24] = group: developmental, developmental / developmental malformation / bone / [other]
[25] = group: developmental, developmental / developmental malformation / bone / [other] + developmental / developmental malformation / other / other + developmental / …
[26] = group: maternal, systemic / in life observation / body weight / body weight + systemic / in life observation / body weight / body weight gain + systemic / in…
[27] = group: offspring, systemic / in life observation / body weight / offspring (pup) weight
[28] = group: parental, systemic / in life observation / body weight / body weight + systemic / in life observation / body weight / body weight gain + systemic / in…
[29] = systemic / in life observation / body weight / body weight gain + systemic / organ weight / liver / relative to body weight + systemic / …
[30] = systemic / clinical chemistry / lipids / phospholipids
[31] = systemic / in life observation / clinical signs / lack of coordination + systemic / in life observation / clinical signs / voluntary muscle …
[32] = group: developmental, developmental / developmental malformation / general / [other] + systemic / in life observation / body weight / fetal weight
[33] = group: developmental, systemic / in life observation / body weight / fetal weight
[34] = group: maternal, reproductive / reproductive performance / resorptions / resorptions + systemic / in life observation / body weight / body weight gain + …
[35] = systemic / in life observation / body weight / body weight + systemic / in life observation / mortality / mortality
[36] = systemic / pathology microscopic / lung / congestion + systemic / pathology microscopic / pancreas / vacuolization + systemic / in life …
[37] = developmental / developmental malformation / mouth / jaw / cleft palate
[38] = developmental / developmental malformation / mouth / jaw / cleft palate + systemic / in life observation / body weight / fetal weight
[39] = systemic / in life observation / body weight / body weight gain + systemic / pathology microscopic / eye / cataract + systemic / pathology …
[40] = group: developmental, developmental / developmental malformation / bone / ossification sites + developmental / developmental malformation / bone / full …
[41] = group: maternal, systemic / in life observation / body weight / body weight + systemic / in life observation / food consumption / food consumption + systemic…
[42] = group: maternal, systemic / in life observation / body weight / body weight
[43] = group: maternal, systemic / in life observation / body weight / body weight + systemic / in life observation / clinical signs / body surface staining + …

SMILES: CC(COc1ccc(Oc2ccccc2)cc1)Oc1ccccn1 (stereo not given) [Pyriproxyfen]
- LEL (rat [1]; [21]): 7.04 mg/kg/day
- NEL (rat [1]; [21]): < 7.04 mg/kg/day
- NOAEL (rat [1]; systemic / clinical chemistry / gamma glutamyl transferase (ggt) / gamma glutamyl transferase (ggt) + systemic / in life observation / body …): 35.1 mg/kg/day
- LOAEL (rat [1]; systemic / in life observation / body weight / body weight): 183 mg/kg/day
- LEL (rat [2]; [22]): 23.5 mg/kg/day
- NEL (rat [2]; [22]): < 23.5 mg/kg/day
- LOAEL (rat [2]; [23]): 118 mg/kg/day
- NOAEL (rat [2]; [23]): 23.5 mg/kg/day
- LEL (rat [3]; [24]): 300 mg/kg/day
- LOAEL (rat [3]; [24]): 300 mg/kg/day
- NEL (rat [3]; [25]): 100 mg/kg/day
- NOAEL (rat [3]; [25]): 100 mg/kg/day
- LEL (rat [3]; [26]): 300 mg/kg/day
- LOAEL (rat [3]; [26]): 300 mg/kg/day
- NEL (rat [3]; [26]): 100 mg/kg/day
- NOAEL (rat [3]; [26]): 100 mg/kg/day
- LEL (rat [4]; [27]): 453 mg/kg/day
- LOAEL (rat [4]; [27]): 453 mg/kg/day
- NEL (rat [4]; [27]): 87 mg/kg/day
- NOAEL (rat [4]; [27]): 87 mg/kg/day
- LOAEL (rat [4]; [28]): 453 mg/kg/day
- NEL (rat [4]; [28]): 18 mg/kg/day
- NOAEL (rat [4]; [28]): 87 mg/kg/day
- LEL (rat [4]; group: parental, systemic / organ weight / liver / relative to body weight + systemic / pathology microscopic / kidney / inflammation + systemic / organ …): 87 mg/kg/day
- LEL (dog [5]; systemic / in life observation / body weight / body weight gain + systemic / clinical chemistry / cholesterol / cholesterol + systemic / …): 100 mg/kg/day
- LOAEL (dog [5]; systemic / in life observation / body weight / body weight gain + systemic / organ weight / liver / relative to body weight): 300 mg/kg/day
- NEL (dog [5]; [29]): 30 mg/kg/day
- NOAEL (dog [5]; [29]): 100 mg/kg/day
- LEL (dog [6]; [30]): 100 mg/kg/day
- NEL (dog [6]; [30]): < 100 mg/kg/day
- NOAEL (dog [6]; systemic / pathology microscopic / liver / hypertrophy + systemic / clinical chemistry / alpha-1 globulin / alpha-1 globulin + systemic / …): 100 mg/kg/day
- LOAEL (dog [6]; systemic / pathology microscopic / liver / hypertrophy + systemic / organ weight / liver / absolute + systemic / organ weight / liver / …): 300 mg/kg/day
- LEL (mouse [7]): 420 mg/kg/day
- LOAEL (mouse [7]): 420 mg/kg/day
- NEL (mouse [7]): 84 mg/kg/day
- NOAEL (mouse [7]): 84 mg/kg/day

SMILES: CC1(C)[C@H](C(=O)O[C@H](C#N)c2cccc(Oc3ccccc3)c2)[C@@H]1/C=C(\Cl)C(F)(F)F [gamma-Cyhalothrin]
- LOAEL (rat [8]; [31]): 6.6 mg/kg/day
- NEL (rat [8]; [31]): 0.7 mg/kg/day
- NOAEL (rat [8]; [31]): 3.4 mg/kg/day
- LEL (rat [8]; systemic / organ weight / liver / relative to body weight): 3.4 mg/kg/day

SMILES: OCCCl [2-Chloroethanol]
- LOAEL (mouse [9]; [32]): > 120 mg/kg/day
- NOAEL (mouse [9]; [32]): ≥ 120 mg/kg/day
- LEL (mouse [9]; [33]): 60 mg/kg/day
- NEL (mouse [9]; [33]): < 60 mg/kg/day
- LEL (mouse [9]; [34]): 120 mg/kg/day
- LOAEL (mouse [9]; [34]): > 120 mg/kg/day
- NEL (mouse [9]; [34]): 60 mg/kg/day
- NOAEL (mouse [9]; [34]): ≥ 120 mg/kg/day
- LEL (mouse [10]; [35]): 180 mg/kg/day
- NEL (mouse [10]; [35]): < 180 mg/kg/day
- LOAEL (mouse [10]; systemic / pathology microscopic / skin / inflammation + systemic / pathology microscopic / skin / ulcer): 411 mg/kg/day
- NOAEL (mouse [10]; systemic / pathology microscopic / skin / inflammation + systemic / pathology microscopic / skin / ulcer + systemic / in life observation / …): 180 mg/kg/day
- LOAEL (rat [11]; systemic / pathology microscopic / lung / congestion + systemic / pathology microscopic / pancreas / vacuolization): 500 mg/kg/day
- NEL (rat [11]; [36]): 125 mg/kg/day
- NOAEL (rat [11]; [36]): 250 mg/kg/day
- LEL (rat [11]; systemic / pathology microscopic / pancreas / vacuolization + systemic / in life observation / mortality / mortality): 250 mg/kg/day
- LEL (rat [12]): 100 mg/kg/day
- LOAEL (rat [12]): > 100 mg/kg/day
- NEL (rat [12]): 50 mg/kg/day
- NOAEL (rat [12]): ≥ 100 mg/kg/day

SMILES: C[C@]12C=CC(=O)C=C1CC[C@H]1[C@@H]3C[C@@H](O)[C@](O)(C(=O)CO)[C@@]3(C)C[C@H](O)[C@@]12F [Triamcinolone]
- LEL (rat [13]; [37]): 10 mg/kg/day
- NEL (rat [13]; [37]): < 10 mg/kg/day
- LOAEL (rat [13]; [38]): > 40 mg/kg/day
- NOAEL (rat [13]; [38]): ≥ 40 mg/kg/day

SMILES: OC[C@@H](O)[C@@H](O)[C@H](O)[C@H](O)CO [D-Mannitol]
- LEL (mouse [14]): 3750 mg/kg/day
- LOAEL (mouse [14]): 3750 mg/kg/day
- NEL (mouse [14]): < 3750 mg/kg/day
- NOAEL (mouse [14]): < 3750 mg/kg/day
- LEL (rat [15]): 2500 mg/kg/day
- LOAEL (rat [15]): 2500 mg/kg/day
- NEL (rat [15]): 1250 mg/kg/day
- NOAEL (rat [15]): 1250 mg/kg/day
- LOAEL (rat [16]; systemic / in life observation / body weight / body weight gain): 2500 mg/kg/day
- LEL (rat [16]; [39]): 1250 mg/kg/day
- NEL (rat [16]; [39]): < 1250 mg/kg/day
- NOAEL (rat [16]; [39]): 1250 mg/kg/day
- LEL (mouse [17]): > 7500 mg/kg/day
- LOAEL (mouse [17]): > 7500 mg/kg/day
- NEL (mouse [17]): ≥ 7500 mg/kg/day
- NOAEL (mouse [17]): ≥ 7500 mg/kg/day

SMILES: Cc1cc(C)n(CO)n1 [(3,5-Dimethyl-1H-pyrazol-1-yl)methanol]
- LEL (rat [18]; [40]): 150 mg/kg/day
- LOAEL (rat [18]; [40]): 150 mg/kg/day
- NEL (rat [18]; [40]): 75 mg/kg/day
- NOAEL (rat [18]; [40]): 75 mg/kg/day
- LOAEL (rat [18]; group: maternal, systemic / in life observation / body weight / body weight + systemic / in life observation / food consumption / food consumption): 150 mg/kg/day
- LEL (rat [18]; [41]): 150 mg/kg/day
- NEL (rat [18]; [41]): 75 mg/kg/day
- NOAEL (rat [18]; [41]): 75 mg/kg/day
- LEL (rat [19]; [33]): 400 mg/kg/day
- LOAEL (rat [19]; [33]): 400 mg/kg/day
- NEL (rat [19]; [33]): 200 mg/kg/day
- NOAEL (rat [19]; [33]): 200 mg/kg/day
- LOAEL (rat [19]; [42]): 100 mg/kg/day
- NOAEL (rat [19]; [42]): < 100 mg/kg/day
- LEL (rat [19]; [43]): 100 mg/kg/day
- NEL (rat [19]; [43]): < 100 mg/kg/day
- LEL (rat [20]): 50 mg/kg/day
- LOAEL (rat [20]): 50 mg/kg/day
- NEL (rat [20]): < 50 mg/kg/day
- NOAEL (rat [20]): < 50 mg/kg/day
